Experiments:
[1] = target: T1, Prostaglandin G/H synthase 1 (Homo sapiens, UniProt P23219); assay type: functional
Mu-type opioid receptor = Mu-type opioid receptor (Homo sapiens, UniProt P35372)
D(1A) dopamine receptor [2] = target: T2, D(1A) dopamine receptor (Homo sapiens, UniProt P21728)
[3] = target: Sodium-dependent dopamine transporter (Homo sapiens, UniProt Q01959)
[4] = target: T3, Muscarinic acetylcholine receptor M2 (Homo sapiens, UniProt P08172)
T3 sequence (P08172 whole entry): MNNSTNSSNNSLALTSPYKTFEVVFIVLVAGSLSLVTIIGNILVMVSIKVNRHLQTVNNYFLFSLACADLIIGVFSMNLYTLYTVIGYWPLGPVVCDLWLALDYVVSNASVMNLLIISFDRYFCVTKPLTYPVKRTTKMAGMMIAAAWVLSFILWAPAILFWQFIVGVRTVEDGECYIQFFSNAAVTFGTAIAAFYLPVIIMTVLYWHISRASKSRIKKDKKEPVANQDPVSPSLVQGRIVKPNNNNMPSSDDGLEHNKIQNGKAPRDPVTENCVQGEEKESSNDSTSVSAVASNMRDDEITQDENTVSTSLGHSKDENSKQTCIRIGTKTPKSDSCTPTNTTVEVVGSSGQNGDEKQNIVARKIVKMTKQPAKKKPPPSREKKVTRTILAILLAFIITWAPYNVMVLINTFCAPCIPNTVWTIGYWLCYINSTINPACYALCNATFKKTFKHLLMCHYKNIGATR

Estrogen receptor = target: T4, Estrogen receptor (Homo sapiens, UniProt P03372)
T4 sequence (P03372 whole entry): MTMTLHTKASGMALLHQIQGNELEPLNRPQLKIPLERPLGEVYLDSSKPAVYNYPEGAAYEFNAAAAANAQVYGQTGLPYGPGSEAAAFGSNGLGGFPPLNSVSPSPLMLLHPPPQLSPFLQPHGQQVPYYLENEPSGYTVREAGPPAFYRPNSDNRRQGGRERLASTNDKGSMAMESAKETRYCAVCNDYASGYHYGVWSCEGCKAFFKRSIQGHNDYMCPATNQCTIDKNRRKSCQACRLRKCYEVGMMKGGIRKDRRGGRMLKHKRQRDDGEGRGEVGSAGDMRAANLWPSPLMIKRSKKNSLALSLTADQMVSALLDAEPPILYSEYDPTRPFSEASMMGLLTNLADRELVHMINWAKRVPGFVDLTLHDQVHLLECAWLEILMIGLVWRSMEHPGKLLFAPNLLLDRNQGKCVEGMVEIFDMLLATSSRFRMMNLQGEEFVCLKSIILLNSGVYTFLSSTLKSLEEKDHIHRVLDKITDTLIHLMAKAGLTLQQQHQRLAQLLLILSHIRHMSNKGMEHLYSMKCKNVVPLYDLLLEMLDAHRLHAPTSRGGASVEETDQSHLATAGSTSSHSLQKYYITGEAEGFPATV

[5] = target: T1, Prostaglandin G/H synthase 1; assay type: functional; remark: listed apart in the source
D(1A) dopamine receptor [6] = target: T2, D(1A) dopamine receptor; remark: listed apart in the source
[7] = target: Sodium-dependent noradrenaline transporter (Homo sapiens, UniProt P23975)
[8] = target: Voltage-dependent L-type calcium channel subunit alpha-1C (Homo sapiens, UniProt Q13936); assay type: functional, cell-based
[9] = target: T5, Muscarinic acetylcholine receptor M1 (Homo sapiens, UniProt P11229); assay type: functional, cell-based
T5 sequence (P11229 whole entry): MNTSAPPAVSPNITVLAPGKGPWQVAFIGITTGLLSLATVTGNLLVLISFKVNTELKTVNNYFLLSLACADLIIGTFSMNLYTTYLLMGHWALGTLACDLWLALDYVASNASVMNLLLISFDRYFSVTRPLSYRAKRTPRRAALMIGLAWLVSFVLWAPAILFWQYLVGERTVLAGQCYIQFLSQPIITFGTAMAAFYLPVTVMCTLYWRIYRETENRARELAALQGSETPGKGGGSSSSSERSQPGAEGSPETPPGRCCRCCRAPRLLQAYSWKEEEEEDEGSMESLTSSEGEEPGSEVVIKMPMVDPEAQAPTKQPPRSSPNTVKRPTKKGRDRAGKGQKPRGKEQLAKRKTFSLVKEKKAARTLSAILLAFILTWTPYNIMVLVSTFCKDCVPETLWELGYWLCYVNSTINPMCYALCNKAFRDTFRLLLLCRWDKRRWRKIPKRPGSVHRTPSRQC

[10] = target: T5, Muscarinic acetylcholine receptor M1; assay type: functional, cell-based; remark: listed apart in the source
D(1A) dopamine receptor [11] = target: T2, D(1A) dopamine receptor; assay type: functional, cell-based
[12] = target: T6, Muscarinic acetylcholine receptor M4 (Homo sapiens, UniProt P08173)
T6 sequence (P08173 whole entry): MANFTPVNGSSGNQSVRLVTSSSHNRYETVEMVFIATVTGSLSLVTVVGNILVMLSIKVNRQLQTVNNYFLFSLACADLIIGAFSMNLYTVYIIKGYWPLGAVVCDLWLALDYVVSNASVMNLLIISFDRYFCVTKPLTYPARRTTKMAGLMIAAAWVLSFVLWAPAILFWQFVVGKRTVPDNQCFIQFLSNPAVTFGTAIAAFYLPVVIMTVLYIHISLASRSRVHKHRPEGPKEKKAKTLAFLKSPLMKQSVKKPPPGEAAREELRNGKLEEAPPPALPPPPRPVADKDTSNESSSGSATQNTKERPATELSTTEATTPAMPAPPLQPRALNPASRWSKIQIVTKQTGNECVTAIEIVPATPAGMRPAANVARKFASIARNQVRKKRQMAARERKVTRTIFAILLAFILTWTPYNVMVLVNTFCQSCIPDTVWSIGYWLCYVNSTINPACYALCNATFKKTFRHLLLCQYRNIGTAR
Note: assay procedure not described here.

T2 sequence (P21728 whole entry): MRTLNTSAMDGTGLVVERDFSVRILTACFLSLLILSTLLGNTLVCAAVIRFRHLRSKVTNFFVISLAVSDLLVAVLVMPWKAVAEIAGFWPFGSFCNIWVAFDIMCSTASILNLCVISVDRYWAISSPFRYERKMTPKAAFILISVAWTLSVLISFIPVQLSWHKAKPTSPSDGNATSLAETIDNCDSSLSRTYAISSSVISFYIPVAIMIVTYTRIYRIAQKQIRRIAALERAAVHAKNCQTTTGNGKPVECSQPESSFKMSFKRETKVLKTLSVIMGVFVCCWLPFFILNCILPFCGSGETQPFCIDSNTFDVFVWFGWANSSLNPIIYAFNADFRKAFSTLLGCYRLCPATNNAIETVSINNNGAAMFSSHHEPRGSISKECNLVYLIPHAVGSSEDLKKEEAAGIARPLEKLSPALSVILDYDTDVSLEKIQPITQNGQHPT
T1 sequence (P23219 whole entry): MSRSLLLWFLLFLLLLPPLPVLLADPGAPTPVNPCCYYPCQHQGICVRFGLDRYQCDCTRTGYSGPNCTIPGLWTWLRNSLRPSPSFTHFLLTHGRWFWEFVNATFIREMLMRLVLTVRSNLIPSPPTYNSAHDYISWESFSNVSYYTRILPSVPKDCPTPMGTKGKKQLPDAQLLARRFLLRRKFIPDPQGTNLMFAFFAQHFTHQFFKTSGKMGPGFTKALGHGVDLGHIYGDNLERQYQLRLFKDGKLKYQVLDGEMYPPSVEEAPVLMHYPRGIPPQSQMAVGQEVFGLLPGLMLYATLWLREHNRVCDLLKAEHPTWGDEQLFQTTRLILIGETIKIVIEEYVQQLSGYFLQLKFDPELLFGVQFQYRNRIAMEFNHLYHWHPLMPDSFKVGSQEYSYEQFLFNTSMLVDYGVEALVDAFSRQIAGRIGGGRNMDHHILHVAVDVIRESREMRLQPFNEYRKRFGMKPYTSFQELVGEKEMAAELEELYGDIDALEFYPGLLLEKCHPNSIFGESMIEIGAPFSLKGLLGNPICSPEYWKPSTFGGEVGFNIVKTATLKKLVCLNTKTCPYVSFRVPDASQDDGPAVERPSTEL
Sequence of Sodium-dependent noradrenaline transporter (P23975 whole entry): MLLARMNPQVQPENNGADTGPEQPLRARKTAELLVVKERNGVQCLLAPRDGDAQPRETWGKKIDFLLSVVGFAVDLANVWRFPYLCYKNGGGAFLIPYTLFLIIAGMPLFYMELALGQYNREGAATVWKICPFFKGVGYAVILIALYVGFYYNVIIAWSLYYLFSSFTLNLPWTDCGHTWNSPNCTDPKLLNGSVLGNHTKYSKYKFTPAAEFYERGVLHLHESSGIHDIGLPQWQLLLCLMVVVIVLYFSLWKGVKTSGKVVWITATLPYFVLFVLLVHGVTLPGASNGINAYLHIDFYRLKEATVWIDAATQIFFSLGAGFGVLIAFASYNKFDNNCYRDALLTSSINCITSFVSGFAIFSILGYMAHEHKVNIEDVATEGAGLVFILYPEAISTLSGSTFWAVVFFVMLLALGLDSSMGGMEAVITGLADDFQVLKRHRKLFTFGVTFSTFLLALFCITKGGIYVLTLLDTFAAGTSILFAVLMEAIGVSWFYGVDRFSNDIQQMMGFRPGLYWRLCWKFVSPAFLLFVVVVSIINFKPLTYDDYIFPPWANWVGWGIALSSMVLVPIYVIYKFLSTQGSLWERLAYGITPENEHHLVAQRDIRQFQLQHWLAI
Sequence of Sodium-dependent dopamine transporter (Q01959 whole entry): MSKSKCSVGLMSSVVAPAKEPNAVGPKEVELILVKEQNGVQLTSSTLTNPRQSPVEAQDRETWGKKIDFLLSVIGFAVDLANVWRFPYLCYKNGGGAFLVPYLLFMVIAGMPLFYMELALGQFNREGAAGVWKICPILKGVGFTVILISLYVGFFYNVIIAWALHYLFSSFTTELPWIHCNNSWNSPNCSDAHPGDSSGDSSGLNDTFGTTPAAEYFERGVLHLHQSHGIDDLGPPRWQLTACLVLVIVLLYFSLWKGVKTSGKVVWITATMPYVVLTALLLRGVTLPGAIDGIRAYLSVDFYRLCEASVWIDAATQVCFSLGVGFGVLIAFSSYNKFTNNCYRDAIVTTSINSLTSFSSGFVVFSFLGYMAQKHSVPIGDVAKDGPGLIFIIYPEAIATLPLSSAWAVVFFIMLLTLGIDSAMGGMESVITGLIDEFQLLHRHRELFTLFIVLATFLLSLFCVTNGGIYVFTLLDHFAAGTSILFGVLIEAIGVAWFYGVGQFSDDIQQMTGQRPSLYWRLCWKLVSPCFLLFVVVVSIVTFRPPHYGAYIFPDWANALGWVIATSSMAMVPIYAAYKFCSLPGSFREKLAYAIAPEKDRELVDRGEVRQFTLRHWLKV
Sequence of Voltage-dependent L-type calcium channel subunit alpha-1C (Q13936 whole entry): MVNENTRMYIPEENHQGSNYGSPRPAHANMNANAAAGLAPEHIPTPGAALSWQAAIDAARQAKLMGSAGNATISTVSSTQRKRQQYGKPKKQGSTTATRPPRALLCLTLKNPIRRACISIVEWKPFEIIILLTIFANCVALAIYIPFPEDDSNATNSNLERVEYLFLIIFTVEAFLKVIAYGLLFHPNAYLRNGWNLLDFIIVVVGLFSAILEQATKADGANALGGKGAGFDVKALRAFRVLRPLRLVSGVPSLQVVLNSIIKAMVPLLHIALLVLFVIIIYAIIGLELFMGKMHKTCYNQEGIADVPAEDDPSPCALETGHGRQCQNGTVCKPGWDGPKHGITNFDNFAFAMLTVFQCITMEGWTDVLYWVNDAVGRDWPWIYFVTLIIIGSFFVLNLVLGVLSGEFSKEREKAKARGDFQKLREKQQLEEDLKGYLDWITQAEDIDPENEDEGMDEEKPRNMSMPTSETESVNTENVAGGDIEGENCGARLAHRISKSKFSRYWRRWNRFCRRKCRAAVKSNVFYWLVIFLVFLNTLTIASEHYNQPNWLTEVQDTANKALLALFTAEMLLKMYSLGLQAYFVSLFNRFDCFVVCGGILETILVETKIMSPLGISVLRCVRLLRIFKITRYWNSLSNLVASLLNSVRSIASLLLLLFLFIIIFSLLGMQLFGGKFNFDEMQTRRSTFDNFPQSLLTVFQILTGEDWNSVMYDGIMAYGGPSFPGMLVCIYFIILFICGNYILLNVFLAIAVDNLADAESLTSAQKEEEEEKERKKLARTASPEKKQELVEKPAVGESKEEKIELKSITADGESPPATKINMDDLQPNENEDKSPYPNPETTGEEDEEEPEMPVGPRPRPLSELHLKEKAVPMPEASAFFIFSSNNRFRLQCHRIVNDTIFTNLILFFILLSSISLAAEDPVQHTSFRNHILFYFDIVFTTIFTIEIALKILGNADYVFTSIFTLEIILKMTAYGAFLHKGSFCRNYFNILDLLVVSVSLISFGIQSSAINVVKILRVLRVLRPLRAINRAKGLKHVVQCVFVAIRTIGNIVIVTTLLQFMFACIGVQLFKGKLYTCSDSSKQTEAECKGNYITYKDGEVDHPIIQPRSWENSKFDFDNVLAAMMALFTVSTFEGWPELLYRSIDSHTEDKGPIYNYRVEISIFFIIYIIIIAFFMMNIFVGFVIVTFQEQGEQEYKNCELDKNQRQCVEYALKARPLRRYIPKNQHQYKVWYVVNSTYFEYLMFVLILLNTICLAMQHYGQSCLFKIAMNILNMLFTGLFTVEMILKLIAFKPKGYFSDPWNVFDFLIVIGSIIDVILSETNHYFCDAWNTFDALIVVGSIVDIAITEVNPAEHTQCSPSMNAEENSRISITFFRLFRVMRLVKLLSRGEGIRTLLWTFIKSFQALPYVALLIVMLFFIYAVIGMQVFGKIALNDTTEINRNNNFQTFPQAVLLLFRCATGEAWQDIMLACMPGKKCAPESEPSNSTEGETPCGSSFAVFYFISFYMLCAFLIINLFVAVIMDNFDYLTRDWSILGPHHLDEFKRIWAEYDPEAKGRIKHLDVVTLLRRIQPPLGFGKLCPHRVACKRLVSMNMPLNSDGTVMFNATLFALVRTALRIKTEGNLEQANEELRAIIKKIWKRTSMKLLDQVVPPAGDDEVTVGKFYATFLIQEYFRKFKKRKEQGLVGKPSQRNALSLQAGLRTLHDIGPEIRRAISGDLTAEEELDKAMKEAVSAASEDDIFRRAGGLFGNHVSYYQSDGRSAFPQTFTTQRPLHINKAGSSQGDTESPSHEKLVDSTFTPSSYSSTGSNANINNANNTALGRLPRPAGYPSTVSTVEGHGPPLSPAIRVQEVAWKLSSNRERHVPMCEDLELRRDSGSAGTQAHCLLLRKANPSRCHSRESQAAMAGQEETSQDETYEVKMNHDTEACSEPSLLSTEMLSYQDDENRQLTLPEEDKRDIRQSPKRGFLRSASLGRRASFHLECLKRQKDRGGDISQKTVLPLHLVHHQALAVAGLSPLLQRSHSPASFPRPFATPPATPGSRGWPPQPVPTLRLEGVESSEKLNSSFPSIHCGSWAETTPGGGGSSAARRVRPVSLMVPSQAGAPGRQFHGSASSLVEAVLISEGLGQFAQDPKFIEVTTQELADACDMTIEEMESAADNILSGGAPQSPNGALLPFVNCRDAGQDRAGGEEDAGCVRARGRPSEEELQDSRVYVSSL
Sequence of Mu-type opioid receptor (P35372 whole entry): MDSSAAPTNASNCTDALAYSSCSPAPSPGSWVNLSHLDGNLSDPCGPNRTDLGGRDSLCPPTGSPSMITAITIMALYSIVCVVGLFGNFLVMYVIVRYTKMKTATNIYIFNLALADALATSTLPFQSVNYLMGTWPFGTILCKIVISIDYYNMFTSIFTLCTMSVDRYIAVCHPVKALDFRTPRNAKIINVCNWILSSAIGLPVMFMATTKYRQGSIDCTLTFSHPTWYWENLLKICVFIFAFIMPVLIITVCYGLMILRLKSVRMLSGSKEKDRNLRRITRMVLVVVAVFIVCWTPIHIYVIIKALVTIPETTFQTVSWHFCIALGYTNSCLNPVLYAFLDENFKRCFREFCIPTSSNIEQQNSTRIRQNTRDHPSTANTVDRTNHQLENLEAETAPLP

Compound: COLISTIN
- AC50 [1]: > 30 µM
- AC50 (Mu-type opioid receptor): > 30 µM
- AC50 (D(1A) dopamine receptor [2]): > 30 µM
- AC50 [3]: 26.6 µM
- AC50 [4]: > 30 µM
- AC50 (Estrogen receptor): > 30 µM
- AC50 [5]: 11.2 µM
- AC50 (D(1A) dopamine receptor [6]): > 30 µM
- AC50 [7]: > 30 µM

Compound: COC(=O)N[C@@H](C)CNc1nccc(-c2cn(C(C)C)nc2-c2cc(Cl)cc(NS(C)(=O)=O)c2F)n1 [ENCORAFENIB]
- AC50 [8]: > 30 µM

Compound: CCCOC(C(=O)OC1CCN(C)CC1)(c1ccccc1)c1ccccc1 [PROPIVERINE]
- AC50 [9]: > 30 µM
- AC50 [10]: 0.59 µM

Compound: CC(C)(C)NCC(O)c1cc(Cl)c(N)c(Cl)c1 (stereo unspecified) [CLENBUTEROL]
- AC50 (D(1A) dopamine receptor [11]): > 30 µM

Compound: N#Cc1ccccc1-c1cc(-c2ccccn2)cn(-c2ccccc2)c1=O
- AC50 [8]: > 30 µM

Compound: N#C[C@@H]1CCCN1C(=O)CNC12CC3CC(CC(O)(C3)C1)C2 [VILDAGLIPTIN]
- AC50 [12]: > 10 µM

Compound: CC(CCc1ccccc1)NC(C)C(O)c1ccc(O)cc1 (stereo unspecified) [NYLIDRIN]
- AC50 [12]: > 10 µM

Compound: O=C1Nc2ccc(Cl)cc2C(c2ccccc2)=NC1O (stereo unspecified) [OXAZEPAM]
- AC50 [12]: > 10 µM

Compound: CCN(CC)C(=O)C1CN2CCc3cc(OC)c(OC)cc3C2CC1OC(C)=O (stereo unspecified) [BENZQUINAMIDE]
- AC50 [9]: > 30 µM
- AC50 [10]: > 30 µM

Compound: COC1=C(OC)C(=O)C(CCCCCCCCCCO)=C(C)C1=O [IDEBENONE]
- AC50 [12]: > 10 µM

Compound: C[n+]1ccccc1/C=N/O [PRALIDOXIME]
- AC50 [1]: > 30 µM
- AC50 (Mu-type opioid receptor): > 30 µM
- AC50 (D(1A) dopamine receptor [2]): > 30 µM
- AC50 [3]: > 30 µM
- AC50 [4]: > 30 µM
- AC50 (Estrogen receptor): > 30 µM
- AC50 [5]: > 30 µM
- AC50 (D(1A) dopamine receptor [6]): > 30 µM
- AC50 [7]: > 30 µM

Compound: O=C(CCCN1CCC(n2c(O)nc3ccccc32)CC1)c1ccc(F)cc1 [BENPERIDOL]
- AC50 (D(1A) dopamine receptor [11]): 7.5 µM

Compound: O=C1CN=C(c2ccccc2)c2cc(Cl)ccc2N1 [NORDAZEPAM]
- AC50 [12]: > 10 µM

— ChEMBL document CHEMBL5291721, “A preclinical secondary pharmacology resource illuminates target-adverse drug reaction associations of marketed drugs” (Nat Commun, 2023)
